The record followed here is US20040009899A1, “Treating dominant disorders” (priority 2002, published 2004).

The series concerns R6/2 mice. The series can be described thus: Survival of R6/2 transgenic mice treated with PNA. It counts as in vivo, mouse. The method, then:
Cannulation and microsurgery—Method 2: Pump cannulas were prepared 48 hours before surgery. For adaptation to mice, Alzet pump cannulas were ground to a length of 2 mm. The cannulas then were sterilized by gas ozonation. Mice were anesthetized via i.p. injection with 100 mg/kg of a ketamine/xylazine solution containing 8 mg/mL ketamine and 1 mg/mL xylazine in 0.9% saline. Once anesthetized, each mouse was cannulated. Each anesthetized mouse was placed in a Stoelting Stereotaxic Frame with a mouse adapter (Stoelting Instruments). An incision was made using a scalpel, and the skin and tissue were pulled back with swabs to reveal the skull. The cannulation site was positioned for optimum access to the ventricle, at coordinates AP −0.2 mm, Horiz −1 mm from bregma. A cannula entry port and two bone screw ports were opened in the skull using a Dremel Flex Shaft Drill (Stoelting Instruments) with a 2.1 mm burr. The cannula was lowered into place and affixed using Loctite 454 (Loctite Corp., Avon, Ohio). An Alzet Mini-Osmotic Pump was inserted into a pouch beneath the skin and attached to the cannula with silastic tubing. The wound was closed using wound clips and the animal was allowed to recuperate.
Delivery of PNA oligomer solutions: All handling of tubing and cannulas was done under sterile conditions. PNA solutions at the correct concentrations were diluted in artificial cerebrospinal fluid (ACSF; 147 mM NaCl, 4.02 mM KCl, 1.2 mM CaCl2, pH 7.5) and then filtered for delivery. As a control, ACSF containing no PNA was delivered.
Experiments were conducted to determine whether PNA-mediated inhibition of mutant huntingtin expression increased survival and/or reversed features of pathophysiology. R6/2 and non-transgenic mice were divided into two groups of three to five mice each, and treated with either HDs or ACSF for approximately ten weeks, beginning at five to six weeks of age. Treated animals received a dose of 0.15 mg/kg of the HDs PNA oligomer, administered by continuous infusion through an Alzet pump. All ACSF-treated transgenic mice died by three months of age.
In other experiments, R6/2 mice were divided into five groups (designated groups 1-5) containing eight to ten animals each. Groups 1-4 received either saline (group 1) or a specific amount of HDs (groups 2-4). Group 5 included untreated R6/2 mice. A sixth group included untreated non-transgenic B6CBA control mice. At 8 weeks of age, each mouse was weighed to establish a weight stability baseline. Baselines for clasping behavior, motility, and motor skill were established at 9 weeks of age using the methods described in Example 1.
At 9 weeks of age, the mice in each group received saline (group 1) or HDs at 2.0 mg/kg, 5.0 mg/kg, or 20.0 mg/kg (groups 2, 3, and 4, respectively) by i.p. injection every 48 hours. The injections continued through 13 weeks of age (i.e., treatment for […]). Weight stability, clasping behavior, motility, and motor skill were assessed weekly during the treatment period. At the time of death or after the treatment period, the brain of each mouse was removed using standard methods. The brains were divided into hemispheres, and one hemisphere of each brain was saved for protein and mRNA analysis. The remaining hemispheres were fixed directly in 10% formalin for 5-7 days. After fixing, the brain hemispheres were weighed individually and processed for sectioning and pathophysiology.

On to “HDs: sense PNA oligomer, 14 residues, 5′-GGACTGCCGTGCCG-3′ (SEQ ID NO:3), specific for the expanded human HD allele (all peptide nucleic acid (PNA))”, for which the “survival of longest-surviving treated animal (one of three)” value (0.15 mg/kg continuous infusion by Alzet pump) was “still alive and healthy at six months of age”. Moreover, for the setting “0.15 mg/kg continuous infusion by Alzet pump, about ten weeks from five to six weeks of age, ACSF-treated all died by three months”, the survival entry is reported as “improved survival”. The “mice alive at 13 weeks of age” value (2.0 mg/kg i.p. every 48 hours from 9 weeks of age) is on record as “None”, the “mice alive at 13 weeks of age” value (5.0 mg/kg i.p. every 48 hours from 9 weeks of age) is reported as 50% and the “mice alive at 13 weeks of age” value (20.0 mg/kg i.p. every 48 hours from 9 weeks of age) amounted to 20%.
